# Where two headings read alike, the source gives them in different places.
# Target: T1, human CB2 receptors (Homo sapiens, UniProt P34972)
# T1 construct: expressed in transfected cells; host or cells: CHO cells
# Assay: cAMP assay
# Type: cell-based
# Protocol: CHO cells expressing human CB1 or CB2 receptors are seeded 17-24 hours prior to the experiment 50.000 cells per well in a black 96 well plate with flat clear bottom (Corning Costar #3904) in DMEM (Invitrogen No. 31331), 1×HT supplement, with 10% fetal calf serum and incubated at 5% CO2 and 37° C. in a humidified incubator. The growth medium was exchanged with Krebs Ringer Bicarbonate buffer with 1 mM IBMX and incubated at 30° C. for 30 min. Compounds were added to a final assay volume of 100 μl and incubated for 30 min at 30° C. Using the cAMP-Nano-TRF detection kit the assay (Roche Diagnostics) was stopped by the addition of 50 μl lysis reagent (Tris, NaCl, 1.5% Triton X100, 2.5% NP40, 10% NaN3) and 50 μl detection solutions ([…] mAb Alexa700-cAMP 1:[…] Ruthenium-2-AHA-cAMP) and shaken for 2 h at room temperature. The time-resolved energy transfer is measured by a TRF reader (Evotec Technologies GmbH), equipped with a ND:YAG laser as excitation source. The plate is measured twice with the excitation at 355 nm and at the emission with a delay of 100 ns and a gate of 100 ns, total exposure time 10 s at 730 (bandwidth 30 nm) or 645 nm (bandwidth 75 nm), respectively. The FRET signal is calculated as follows: FRET=T730-Alexa730-P(T645-B645) with P=Ru730-B730/Ru645-B645, where T730 is the test well measured at 730 nM, T645 is the test well measured at 645 nm, B730 and B645 are the buffer controls at 730 nm and 645 nm, respectively. cAMP content is determined from the function of a standard curve spanning from […] to 0.13 nM cAMP.
# EC50 values were determined using Activity Base analysis (ID Business Solution, Limited).
# [1] = CHO cells expressing human CB2 receptors, read-out: cAMP assay human CB2 EC50
# T1 sequence (P34972 whole entry): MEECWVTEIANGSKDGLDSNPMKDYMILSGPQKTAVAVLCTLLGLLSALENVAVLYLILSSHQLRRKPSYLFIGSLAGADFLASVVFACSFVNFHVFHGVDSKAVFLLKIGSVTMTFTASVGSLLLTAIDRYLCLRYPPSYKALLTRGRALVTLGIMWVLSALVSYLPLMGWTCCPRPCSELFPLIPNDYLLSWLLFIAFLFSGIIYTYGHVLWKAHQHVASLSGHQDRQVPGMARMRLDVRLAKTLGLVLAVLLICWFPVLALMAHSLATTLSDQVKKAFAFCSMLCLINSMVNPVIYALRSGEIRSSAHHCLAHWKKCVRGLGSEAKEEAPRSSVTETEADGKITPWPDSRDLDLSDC
SMILES,EC50 [nM],EC50 [1] [nM]
"CC(C)C[C@H](NC(=O)c1ccc(N2CC(F)(C3CC3)C2)c(OCC2CC2)n1)C(N)=O [Example 36, N-[(2S)-1-Amino-4-methyl-1-oxopentan-2-yl]-5-(3-cyclopropyl-3-fluoroazetidin-1-yl)-6-(cyclopropylmethoxy)pyridine-2-carboxamide]",20,–
"COC1CN(c2ccc(C(=O)NC3(CC(N)=O)COC3)nc2OCC2CC2)C1 [Example 22, N-[3-(2-Amino-2-oxoethyl)oxetan-3-yl]-6-(cyclopropylmethoxy)-5-(3-methoxyazetidin-1-yl)pyridine-2-carboxamide]",–,67
"COC1CN(c2ccc(C(=O)N[C@@H](CC(C)C)C(N)=O)nc2OCC2CC2)C1 [Example 15, N-[(2S)-1-Amino-4-methyl-1-oxopentan-2-yl]-6-(cyclopropylmethoxy)-5-(3-methoxyazetidin-1-yl)pyridine-2-carboxamide]",21.9,–
"Cc1nc(C(C)(C)NC(=O)c2ccc(OCC3CC3)c(-c3ccc(Cl)cc3)n2)no1 [Example 40, 6-(4-Chlorophenyl)-5-(cyclopropylmethoxy)-N-[2-(5-methyl-1,2,4-oxadiazol-3-yl)propan-2-yl]pyridine-2-carboxamide]",16.9,–
"NC(=O)[C@@H]1CC(F)(F)CN1C(=O)c1ccc(N2CCC3(C2)CC3(F)F)c(OCC2CC2)n1 (stereo partly drawn) [Example 31, (2S)-1-[6-(Cyclopropylmethoxy)-5-(2,2-difluoro-5-azaspiro[2.4]heptan-5-yl)pyridine-2-carbonyl]-4,4-difluoropyrrolidine-2-carboxamide]",19,–
"COC1CN(c2ccc(C(=O)NCC3(O)CCCCC3)nc2OCC2CC2)C1 [Example 24, 6-(Cyclopropylmethoxy)-N-[(1-hydroxycyclohexyl)methyl]-5-(3-methoxyazetidin-1-yl)pyridine-2-carboxamide]",–,1290
"CC1(F)CN(c2ccc(C(=O)N3CC(F)(F)C[C@H]3C(N)=O)nc2OCC2CC2)C1 [Example 34, (2S)-1-[6-(Cyclopropylmethoxy)-5-(3-fluoro-3-methylazetidin-1-yl)pyridine-2-carbonyl]-4,4-difluoropyrrolidine-2-carboxamide]",11.4,–
"CC(C)(NC(=O)c1ccc(N2CC3(COC3)C2)c(OCC2CC2)n1)c1nccs1 [Example 11, 6-(Cyclopropylmethoxy)-5-(2-oxa-6-azaspiro[3.3]heptan-6-yl)-N-[2-(1,3-thiazol-2-yl)propan-2-yl]pyridine-2-carboxamide]",135,–
"CC(C)(NC(=O)c1ccc(-c2ccccc2)c(OCC2CC2)n1)c1ncco1 [Example 5, 6-(Cyclopropylmethoxy)-N-[2-(1,3-oxazol-2-yl)propan-2-yl]-5-phenylpyridine-2-carboxamide]",34.2,–
"CCC(CC)(NC(=O)c1ccc(N2CC(OC)C2)c(OCC2CC2)n1)C(=O)NCCCF [Example 27, 6-(Cyclopropylmethoxy)-N-[3-(3-fluoropropylcarbamoyl)pentan-3-yl]-5-(3-methoxyazetidin-1-yl)pyridine-2-carboxamide]",–,444
"NC(=O)[C@@H]1CC(F)(F)CN1C(=O)c1ccc(N2CC(F)(C3CC3)C2)c(OCC2CC2)n1 [Example 37, (2S)-1-[5-(3-Cyclopropyl-3-fluoroazetidin-1-yl)-6-(cyclopropylmethoxy)pyridine-2-carbonyl]-4,4-difluoropyrrolidine-2-carboxamide]",19.3,–
"NC(=O)CC1(NC(=O)c2ccc(N3CC(F)(C4CC4)C3)c(OCC3CC3)n2)COC1 [Example 38, N-[3-(2-Amino-2-oxoethyl)oxetan-3-yl]-5-(3-cyclopropyl-3-fluoroazetidin-1-yl)-6-(cyclopropylmethoxy)pyridine-2-carboxamide]",48.3,–
"CC(C)C[C@H](NC(=O)c1ccc(N2CC(C)(F)C2)c(OCC2CC2)n1)C(N)=O [Example 33, N-[(2S)-1-Amino-4-methyl-1-oxopentan-2-yl]-6-(cyclopropylmethoxy)-5-(3-fluoro-3-methylazetidin-1-yl)pyridine-2-carboxamide]",19.6,–
"COC1CN(c2ccc(C(=O)NC(C)(C)Cc3nnc(-c4ccc(F)cc4)o3)nc2OCC2CC2)C1 [Example 21, 6-(Cyclopropylmethoxy)-N-[1-[5-(4-fluorophenyl)-1,3,4-oxadiazol-2-yl]-2-methylpropan-2-yl]-5-(3-methoxyazetidin-1-yl)pyridine-2-carboxamide]",–,853
"COC1CN(c2ccc(C(=O)N[C@@H](CC3CC3)C(N)=O)nc2OCC2CC2)C1 [Example 10, N-[(2S)-1-amino-3-cyclopropyl-1-oxopropan-2-yl]-6-(cyclopropylmethoxy)-5-(3-methoxyazetidin-1-yl)pyridine-2-carboxamide]",63.4,–
"CC(C)(NC(=O)c1ccc(OCC2CC2)c(-c2cccc(Cl)c2)n1)c1nccs1 [Example 13, 6-(3-Chlorophenyl)-5-(cyclopropylmethoxy)-N-[2-(1,3-thiazol-2-yl)propan-2-yl]pyridine-2-carboxamide]",23.1,–
"CCC(CC)(NC(=O)c1ccc(OCC2CC2)c(Cl)n1)C(=O)NC [Example 17, 6-Chloro-5-(cyclopropylmethoxy)-N-[3-(methylcarbamoyl)pentan-3-yl]pyridine-2-carboxamide]",800,–
"NC(=O)[C@@H]1CC(F)(F)CN1C(=O)c1ccc(OCC2CC2)c(-c2ccc(Cl)cc2)n1 [Example 39, (2S)-1-[6-(4-Chlorophenyl)-5-(cyclopropylmethoxy)pyridine-2-carbonyl]-4,4-difluoropyrrolidine-2-carboxamide]",18,–
"CC(C)C[C@H](NC(=O)c1ccc(OCC2CC2)c(-c2ccc(Cl)cc2)n1)C(N)=O [Example 42, N-[(2S)-1-Amino-4-methyl-1-oxopentan-2-yl]-6-(4-chlorophenyl)-5-(cyclopropylmethoxy)pyridine-2-carboxamide]",4.44,–
"CC1(F)CN(c2ccc(C(=O)NC3(CC(N)=O)COC3)nc2OCC2CC2)C1 [Example 35, N-[3-(2-Amino-2-oxoethyl)oxetan-3-yl]-6-(cyclopropylmethoxy)-5-(3-fluoro-3-methylazetidin-1-yl)pyridine-2-carboxamide]",213,–
"COC1CN(c2ccc(C(=O)NC(C)(C)c3noc(C)n3)nc2OCC2CC2)C1 [Example 8, 6-(Cyclopropylmethoxy)-5-(3-methoxyazetidin-1-yl)-N-[2-(5-methyl-1,2,4-oxadiazol-3-yl)propan-2-yl]pyridine-2-carboxamide]",86.6,–
"CC(C)C[C@H](NC(=O)c1ccc(N2CC3(COC3)C2)c(OCC2CC2)n1)C(N)=O [Example 12, N-[(2S)-1-amino-4-methyl-1-oxopentan-2-yl]-6-(cyclopropylmethoxy)-5-(2-oxa-6-azaspiro[3.3]heptan-6-yl)pyridine-2-carboxamide]",177,–
"NC(=O)[C@H](CC1CC1)NC(=O)c1ccc(OCC2CC2)c(OCC2CC2)n1 [Example 14, N-[(2S)-1-Amino-3-cyclopropyl-1-oxopropan-2-yl]-5,6-bis(cyclopropylmethoxy)pyridine-2-carboxamide]",95,–
"CCC(CC)(NC(=O)c1ccc(N2CC(OC)C2)c(OCC2CC2)n1)C(=O)NCCF [Example 25, 6-(Cyclopropylmethoxy)-N-[3-(2-fluoroethylcarbamoyl)pentan-3-yl]-5-(3-methoxyazetidin-1-yl)pyridine-2-carboxamide]",334,–

# — patent US20160376237A1, “NOVEL PYRIDINE DERIVATIVES” (Hoffmann-La Roche Inc., priority 2014, published 2016)
